Measurements taken from patent US20260198493A1, “HYDRAZIDE COMPOUND AND AGRICULTURAL/HORTICULTURAL FUNGICIDE” (Nippon Soda Co., Ltd., priority 2022, published 2026).

Tests used:
[1] = system: Glomerella cingulata; experiment: Fungicidal effect test against fungi causing grape ripe rot disease; conditions: Colletotrichum gloeosporioides, 72 h, read-out: growth inhibition ratio
[2] = system: Botrytis cinerea; assay type: cell-based; conditions: 120 h, 25 ppm by volume, Vogel medium, 20° C., five days, dark, read-out: growth inhibition ratio
[3] = system: Colletotrichum acutatum; experiment: Fungicidal effect test against fungi causing apple anthracnose; conditions: 96 h, read-out: growth inhibition ratio
[4] = system: Venturia inaequalis; experiment: Control test of apple scab disease (sprayed young apple seedlings); assay type: in vivo; conditions: 125 ppm by mass spray, 12 to 14 days after inoculation
Procedure: [formula] […] Then, the drug liquid was sprayed onto young apple seedlings cultivated in a nursery pot (variety “Orin”, three-to four-leaf stage), and then air-dried. Thereafter, conidiospores of fungi causing apple scab disease (Venturia inaequalis) were inoculated thereon (treated area). As a control, the conidiospores were inoculated in a similar manner to the above on young apple seedlings unsprayed with the drug liquid (untreated area). They were left still at 20° C. in a moist room with light and dark cycles repeated every 12 hours. 12 Days to 14 days after inoculation, leaves of young apple seedlings were visually observed, and the control value was calculated from the lesion area ratio in accordance with the equation used in the control test of cucumber gray mold.

[5] = system: Botrytis cinerea; experiment: Control test of cucumber gray mold (sprayed young cucumber seedlings); assay type: in vivo; conditions: 96 h, four days after inoculation; for pest or weed control at 125 ppm: 125 ppm by mass spray; for pest or weed control at 25 ppm: 25 ppm by mass spray
Procedure: Then, the drug liquid was sprayed onto young cucumber seedlings cultivated in a nursery pot (variety “Jihai”-based, cotyledon stage), and then air-dried. […] They were left still in a moist room at 20° C. Four days after inoculation, leaves of the young cucumber seedlings were visually observed, and the control value was calculated from the lesion area ratio in accordance with the following equation. [formula]

[6] = system: Erysiphe graminis f.sp.tritici; experiment: Control test of wheat powdery mildew disease (sprayed young wheat seedlings); assay type: in vivo; conditions: Blumeria graminis, 144 h, 125 ppm by mass spray, six days after inoculation
From the text: [formula] […] Then, the drug liquid was sprayed onto young wheat seedlings cultivated in a nursery pot (variety “Chihoku”, one-to two-leaf stage), and then air-dried. Thereafter, conidiospores of fungi causing wheat powdery mildew disease (Erysiphe graminis f.sp.tritici) were sprinkled on the young wheat seedlings to inoculate them (treated area). As a control, the conidiospores of fungi causing wheat powdery mildew disease (Erysiphe graminis f.sp.tritici) were sprinkled on young wheat seedlings unsprayed with the drug liquid (untreated area). They were left still in a greenhouse at 20° C. Six days after inoculation, leaves of young wheat seedlings were visually observed, and the lesion area ratio was determined to calculate the control value in a similar manner to the previous test.

CCCC(=O)N(Cc1ccc(C)cc1C)NC(=O)c1cc(C)nnc1Oc1cccc(C2CC2)c1F [b-20]
≥ 75%: inhibition of growth at 25 ppm [1] | inhibition of growth at 25 ppm [2] | inhibition of growth at 25 ppm [3] | pest or weed control at 125 ppm [4] | pest or weed control at 125 ppm [5] | pest or weed control at 125 ppm [6]

CCOC(=O)N(Cc1ccc(C)cc1C)NC(=O)c1cc(C)nnc1Oc1cccc(C2CC2)c1F [b-21]
≥ 75%: inhibition of growth at 25 ppm [1] | inhibition of growth at 25 ppm [2] | inhibition of growth at 25 ppm [3] | pest or weed control at 125 ppm [4] | pest or weed control at 25 ppm [5] | pest or weed control at 125 ppm [5] | pest or weed control at 125 ppm [6]

Cc1ccc(CN(NC(=O)c2cc(C)nnc2Oc2cccc(C3CC3)c2F)C(=O)C2CC2)c(C)c1 [b-25]
≥ 75%: inhibition of growth at 25 ppm [1] | inhibition of growth at 25 ppm [2] | inhibition of growth at 25 ppm [3] | pest or weed control at 125 ppm [4] | pest or weed control at 25 ppm [5] | pest or weed control at 125 ppm [5] | pest or weed control at 125 ppm [6]

COC(=O)N(Cc1ccc(C)c(C)c1)NC(=O)c1cc(C)nnc1Oc1cccc(C2CC2)c1F [b-29]
≥ 75%: inhibition of growth at 25 ppm [1] | inhibition of growth at 25 ppm [2] | inhibition of growth at 25 ppm [3] | pest or weed control at 125 ppm [4] | pest or weed control at 25 ppm [5] | pest or weed control at 125 ppm [5] | pest or weed control at 125 ppm [6]

COCOc1ccc(CN(NC(=O)c2cc(C)nnc2Oc2cccc(C3CC3)c2F)C(=O)OC)c(C)c1 [b-30]
≥ 75%: inhibition of growth at 25 ppm [1] | inhibition of growth at 25 ppm [2] | inhibition of growth at 25 ppm [3] | pest or weed control at 125 ppm [4] | pest or weed control at 25 ppm [5] | pest or weed control at 125 ppm [5] | pest or weed control at 125 ppm [6]

COC(=O)N(Cc1ccc(OC)cc1C)NC(=O)c1cc(C)nnc1Oc1cccc(C2CC2)c1F [b-44]
≥ 75%: inhibition of growth at 25 ppm [1] | inhibition of growth at 25 ppm [2] | inhibition of growth at 25 ppm [3] | pest or weed control at 125 ppm [4] | pest or weed control at 25 ppm [5] | pest or weed control at 125 ppm [5] | pest or weed control at 125 ppm [6]

COC(=O)N(Cc1ccc(C)cc1C)NC(=O)c1cc(C)nnc1Oc1cccc(OC)c1F [b-52]
≥ 75%: inhibition of growth at 25 ppm [1] | inhibition of growth at 25 ppm [2] | inhibition of growth at 25 ppm [3] | pest or weed control at 125 ppm [4] | pest or weed control at 25 ppm [5] | pest or weed control at 125 ppm [5] | pest or weed control at 125 ppm [6]

COC(=O)N(Cc1ccc(Cl)cc1Cl)NC(=O)c1cc(C)nnc1Oc1cccc(C2CC2)c1F [b-57]
≥ 75%: inhibition of growth at 25 ppm [1] | inhibition of growth at 25 ppm [2] | inhibition of growth at 25 ppm [3] | pest or weed control at 125 ppm [4] | pest or weed control at 125 ppm [5] | pest or weed control at 125 ppm [6]

CC(=S)N(Cc1ccc(C)cc1C)NC(=O)c1cc(C)nnc1Oc1cccc(C2CC2)c1F [b-66, 3-(3-Cyclopropyl-2-fluorophenoxy)-N′-(2,4-dimethylbenzyl)-N′-ethanethioyl-6-methylpyridazine-4-carbohydrazide]
≥ 75%: inhibition of growth at 25 ppm [1] | inhibition of growth at 25 ppm [2] | inhibition of growth at 25 ppm [3] | pest or weed control at 125 ppm [4] | pest or weed control at 25 ppm [5] | pest or weed control at 125 ppm [5] | pest or weed control at 125 ppm [6]

COC(=O)N(Cc1ccc(C)cc1C)NC(=O)c1cc(C)nnc1Oc1cccc(Br)c1Cl [b-68]
≥ 75%: inhibition of growth at 25 ppm [1] | inhibition of growth at 25 ppm [2] | inhibition of growth at 25 ppm [3] | pest or weed control at 125 ppm [4] | pest or weed control at 125 ppm [5] | pest or weed control at 125 ppm [6]

COC(=O)N(Cc1ccc(C)cc1C)NC(=O)c1cc(Cl)nnc1Oc1ccc2c(c1)OCO2 [b-81]
≥ 75%: inhibition of growth at 25 ppm [1] | inhibition of growth at 25 ppm [2] | inhibition of growth at 25 ppm [3] | pest or weed control at 125 ppm [4] | pest or weed control at 125 ppm [5] | pest or weed control at 125 ppm [6]

COC(=O)N(Cc1ccc(OC)cc1OC)NC(=O)c1cc(C)nnc1Oc1cccc(C2CC2)c1F [b-83]
≥ 75%: inhibition of growth at 25 ppm [1] | inhibition of growth at 25 ppm [2] | inhibition of growth at 25 ppm [3] | pest or weed control at 125 ppm [4] | pest or weed control at 125 ppm [5] | pest or weed control at 125 ppm [6]

COC(=O)N(Cc1ccc(C)cc1C)NC(=O)c1c(Oc2cccc(Br)c2F)nnc2c1CCC2 [b-92, Methyl 2-(3-(3-bromo-2-fluorophenoxy)-6,7-dihydro-5H-cyclopenta[c]pyridazine-4-carbonyl)-1-(2,4-dimethylbenzyl)hydrazine-1-carboxylate]
≥ 75%: inhibition of growth at 25 ppm [1] | inhibition of growth at 25 ppm [2] | inhibition of growth at 25 ppm [3] | pest or weed control at 125 ppm [4] | pest or weed control at 25 ppm [5] | pest or weed control at 125 ppm [5] | pest or weed control at 125 ppm [6]

COC(=O)N(Cc1ccc(C)cc1C)NC(=O)c1cc(C)nnc1Oc1cncc(Br)c1 [b-96]
≥ 75%: inhibition of growth at 25 ppm [1] | inhibition of growth at 25 ppm [2] | inhibition of growth at 25 ppm [3] | pest or weed control at 125 ppm [4] | pest or weed control at 125 ppm [5] | pest or weed control at 125 ppm [6]

COC(=O)N(Cc1ccc(C)cc1)NC(=O)c1cc(C)nnc1Oc1cccc(C2CC2)c1F [b-101]
≥ 75%: inhibition of growth at 25 ppm [1] | inhibition of growth at 25 ppm [2] | inhibition of growth at 25 ppm [3] | pest or weed control at 125 ppm [4] | pest or weed control at 25 ppm [5] | pest or weed control at 125 ppm [5] | pest or weed control at 125 ppm [6]

COC(=O)N(Cc1ccccc1C)NC(=O)c1cc(C)nnc1Oc1cccc(C2CC2)c1F [b-103]
≥ 75%: inhibition of growth at 25 ppm [1] | inhibition of growth at 25 ppm [2] | inhibition of growth at 25 ppm [3] | pest or weed control at 125 ppm [4] | pest or weed control at 25 ppm [5] | pest or weed control at 125 ppm [5] | pest or weed control at 125 ppm [6]

COC(=O)N(Cc1ccc(C(F)(F)F)cc1C)NC(=O)c1cc(C)nnc1Oc1cccc(C2CC2)c1F [b-109]
≥ 75%: inhibition of growth at 25 ppm [1] | inhibition of growth at 25 ppm [2] | inhibition of growth at 25 ppm [3] | pest or weed control at 125 ppm [4] | pest or weed control at 25 ppm [5] | pest or weed control at 125 ppm [5] | pest or weed control at 125 ppm [6]

COC(=O)N(Cc1ccc(C)cc1C)NC(=O)c1cc(C)nnc1Oc1cccc(I)c1 [b-114]
≥ 75%: inhibition of growth at 25 ppm [1] | inhibition of growth at 25 ppm [2] | inhibition of growth at 25 ppm [3] | pest or weed control at 125 ppm [4] | pest or weed control at 125 ppm [5] | pest or weed control at 125 ppm [6]

COC(=O)N(Cc1ccc(F)cc1C)NC(=O)c1cc(C)nnc1Oc1cccc(C2CC2)c1F [b-121]
≥ 75%: inhibition of growth at 25 ppm [1] | inhibition of growth at 25 ppm [2] | inhibition of growth at 25 ppm [3] | pest or weed control at 125 ppm [4] | pest or weed control at 25 ppm [5] | pest or weed control at 125 ppm [5] | pest or weed control at 125 ppm [6]
